Values of other authors in US20140066504A1, “ANALOGS AND PRODRUGS OF BUMETANIDE; COMPOSITIONS AND METHODS OF USE” (priority 2012, published 2014).

How the values were obtained:
[1] = test system: audiogenic seizure-prone rats; details: audiogenic seizure-prone animals
primate cortex = details: relative to furosemide
NKCC1 = target: T1, NKCC1 (Homo sapiens, UniProt P55011); details: for affinity for NKCC1 over KCC2: selectivity
T1 sequence (P55011 1-1212): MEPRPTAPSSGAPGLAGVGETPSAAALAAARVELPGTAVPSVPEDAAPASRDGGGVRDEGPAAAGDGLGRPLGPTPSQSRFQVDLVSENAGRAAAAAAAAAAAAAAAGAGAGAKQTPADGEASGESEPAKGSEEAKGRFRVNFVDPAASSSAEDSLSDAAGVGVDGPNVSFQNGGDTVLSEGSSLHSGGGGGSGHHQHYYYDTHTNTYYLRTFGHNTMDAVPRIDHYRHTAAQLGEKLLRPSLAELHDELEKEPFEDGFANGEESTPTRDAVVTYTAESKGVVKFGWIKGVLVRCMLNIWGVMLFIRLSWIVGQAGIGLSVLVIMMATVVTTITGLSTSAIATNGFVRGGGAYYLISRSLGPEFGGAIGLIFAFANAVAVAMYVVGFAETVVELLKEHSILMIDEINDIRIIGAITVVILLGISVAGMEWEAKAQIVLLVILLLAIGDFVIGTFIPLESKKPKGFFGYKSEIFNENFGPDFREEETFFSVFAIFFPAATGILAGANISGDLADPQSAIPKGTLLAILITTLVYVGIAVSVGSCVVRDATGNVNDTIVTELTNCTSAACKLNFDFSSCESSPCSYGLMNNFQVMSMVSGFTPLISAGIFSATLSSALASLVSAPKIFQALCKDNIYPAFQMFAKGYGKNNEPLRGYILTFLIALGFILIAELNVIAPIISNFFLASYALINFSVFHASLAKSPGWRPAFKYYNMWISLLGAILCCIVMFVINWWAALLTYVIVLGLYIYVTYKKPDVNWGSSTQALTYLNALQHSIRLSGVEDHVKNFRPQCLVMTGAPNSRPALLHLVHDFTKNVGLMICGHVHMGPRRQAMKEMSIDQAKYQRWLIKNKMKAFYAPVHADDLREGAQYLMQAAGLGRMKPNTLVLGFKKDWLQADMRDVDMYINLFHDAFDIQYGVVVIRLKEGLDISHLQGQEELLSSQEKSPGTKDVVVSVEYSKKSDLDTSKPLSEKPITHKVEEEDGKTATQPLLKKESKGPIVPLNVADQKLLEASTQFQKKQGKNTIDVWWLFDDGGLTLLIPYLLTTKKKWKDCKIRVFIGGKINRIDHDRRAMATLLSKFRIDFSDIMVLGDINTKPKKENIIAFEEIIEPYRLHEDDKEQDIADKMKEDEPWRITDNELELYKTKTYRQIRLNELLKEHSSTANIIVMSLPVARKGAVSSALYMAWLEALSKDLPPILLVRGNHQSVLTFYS

rat hippocampal slices = details: afterdischarge, high-K+, zero-magnesium, 4-AP, bicuculline, zero-calcium models
neocortex = details: intravenously administered, human patients
[2] = test system: adults with refractory epilepsy

| SMILES | effect on conditioned anxiety (rat models of anxiety) | effect on kainic acid status (rats) | effect on sound-triggered seizures [1] | blocking epileptiform activity (focal bicuculline or 4-AP) and stimulation-evoked afterdischarges (primate cortex) | NKCC1 antagonist potency and specificity relative to furosemide (NKCC1) | affinity for NKCC1 over KCC2 (NKCC1) | effect on epileptiform activity (rat hippocampal slices) | effect on interictal spiking and stimulation-evoked afterdischarges (neocortex) | effect on seizure frequency [2] | effect on activity-driven glial cell swelling (glial cell) |
| --- | --- | --- | --- | --- | --- | --- | --- | --- | --- | --- |
| CCCCNc1cc(C(=O)O)cc(S(N)(=O)=O)c1Oc1ccccc1 [bumetanide] | significantly reduce conditioned anxiety | more potent than furosemide | more potent than furosemide | more potent than furosemide | more potent and specific antagonist than furosemide | significantly greater affinity for NKCC1 over KCC2 | – | – | – | – |
| NS(=O)(=O)c1cc(C(=O)O)c(NCc2ccco2)cc1Cl [furosemide] | significantly reduce conditioned anxiety | – | prevented sound-triggered seizures | – | – | significantly greater affinity for NKCC1 over KCC2 | block epileptiform activity | blocked spontaneously occurring interictal spiking and stimulation-evoked afterdischarges | significantly reduced seizure frequency | block activity-driven glial cell swelling |
